Each structure is given as a SMILES string.

For series [1], the system named is Klebsiella pneumoniae (ATCC 700603). Description: Minimum Inhibitory Concentration, micro-dilution broth. Type of series: cell-based. The settings on record: 24 h, 37° C.
Another series relates to S. aureus (MTCC 737). The description is as above. Format: cell-based, Staphylococcus aureus. The conditions noted are these: 24 h, 37° C.
In series [2] the test system is vancomycin resistant Enterococcus faecium (VRE) (ATCC 51559). Described as above. Type of series: cell-based. The settings on record: 24 h, 37° C.
A further series concerns MRSA (ATCC 33591). The series is described as above. Format: cell-based, methicillin-resistant S. aureus. The settings on record: 24 h, 37° C.
The next series has as its system E. coli (MTCC 443). The series is described as above. Format: cell-based. The settings on record: 24 h, 37° C.
The subject of the next series is human Red Blood Cells. The series is described as follows: Haemolytic activity. The conditions noted are these: for HC50: human RBCs, 1 h at 37° C.; for hemolysis: at 1000 µM concentration.
Series [3] relates to Enterococcus faecium (ATCC 19634). The series is described as follows: Minimum Inhibitory Concentration, micro-dilution broth. Format: cell-based. The settings on record: 24 h, 37° C.; read-out: Minimum Inhibitory Concentration E. faceium.

`CCCCCCCCCC(=O)N(CCCNC(=O)[C@@H](N)CCCCN)CCCNC(=O)[C@@H](N)CCCCN.O=C(O)C(F)(F)F.O=C(O)C(F)(F)F` [Compound 9, N,N-bis-[{3-(^LLys)amino}propyl]decanamide bis(trifluoroacetate)]: the “Minimum Inhibitory Concentration K. pneumonie” value in series [1] amounted to 98 µM. The MIC with S. aureus (MTCC 737) is 53 µM; in series [2], 58 µM; against E. coli (MTCC 443) it was 40 µM; in series [3], 60 µM. In addition, the “Minimum Inhibitory Concentration MRSA” value in the series with MRSA (ATCC 33591) turned out to be 65 µM. For the same compound, the HC50 in the series with human Red Blood Cells (Table 3) is on record as >1000. For the same compound, the hemolysis result in the series with human Red Blood Cells was “did not show any hemolytic”.
Take `CCCCCCCCCCCC(=O)N(CCCNC(=O)[C@@H](N)CCCCN)CCCNC(=O)[C@@H](N)CCCCN.O=C(O)C(F)(F)F.O=C(O)C(F)(F)F` [Compound 10, N,N-bis-[{3-(^LLys)amino}propyl]dodecanamide bis(trifluoroacetate)]: the “Minimum Inhibitory Concentration K. pneumonie” value in series [1] is 40 µM. Also, the MIC is reported as 37 µM against S. aureus (MTCC 737), 30 µM in series [2], 14 µM with E. coli (MTCC 443) and 32 µM in series [3]. In addition, the “Minimum Inhibitory Concentration MRSA” value with MRSA (ATCC 33591) was found to be 45 µM. Also, the HC50 in the series on human Red Blood Cells (Table 3) was >1000. Also, in the series with human Red Blood Cells, the hemolysis entry is listed as “did not show any hemolytic”.
Take `CCCCCCCCCCCCCC(=O)N(CCCNC(=O)[C@@H](N)CCCCN)CCCNC(=O)[C@@H](N)CCCCN.O=C(O)C(F)(F)F.O=C(O)C(F)(F)F` [Compound 11, N,N-bis-[{3-(^LLys)amino}propyl]tetradecanamide bis(trifluoroacetate)]: in series [1], the “Minimum Inhibitory Concentration K. pneumonie” value is 9.3 µM. Also, the MIC is 7.8 µM in the series with S. aureus (MTCC 737), 1.5 µM in series [2], 5.9 µM with E. coli (MTCC 443) and 2 µM in series [3]. Besides, the “Minimum Inhibitory Concentration MRSA” value in the series with MRSA (ATCC 33591) was 14 µM. The HC50 in the series on human Red Blood Cells (Table 3) is recorded as 588.
In the case of `CCCCCCCCCCCC(=O)N(CCCNC(=O)CN)CCCNC(=O)CN.O=C(O)C(F)(F)F.O=C(O)C(F)(F)F` [Compound 42, N,N-bis-[{3-(Gly)amido}propyl]dodecanamide bis(trifluoroacetate)], the “Minimum Inhibitory Concentration K. pneumonie” value in series [1] is >340 µM. The MIC was determined as 67 µM with S. aureus (MTCC 737), 112 µM in series [2], 340 µM in the series on E. coli (MTCC 443) and 86 µM in series [3]. In the series with MRSA (ATCC 33591), the “Minimum Inhibitory Concentration MRSA” value is 61 µM. Besides, the HC50 with human Red Blood Cells (Table 6) is 400 µM.
`CCCCCCCCCCCCCC(=O)N(CCCNC(=O)CN)CCCNC(=O)CN.O=C(O)C(F)(F)F.O=C(O)C(F)(F)F` [Compound 43, N,N-bis-[{3-(Gly)amido}propyl]tetradecanamide bis(trifluoroacetate)]: in series [1], the “Minimum Inhibitory Concentration K. pneumonie” value is >365 µM. Also, the MIC was found to be 12.5 µM with S. aureus (MTCC 737), 13 µM in series [2], 16 µM in the series with E. coli (MTCC 443) and 8.8 µM in series [3]. Also, in the series on MRSA (ATCC 33591), the “Minimum Inhibitory Concentration MRSA” value was found to be 10.8 µM. Moreover, in the series with human Red Blood Cells (Table 6), the HC50 is 157 µM.
On to `CCCCCCCCCCCCCCCC(=O)N(CCCNC(=O)CN)CCCNC(=O)CN.O=C(O)C(F)(F)F.O=C(O)C(F)(F)F` [Compound 44, N,N-bis-[{3-(Gly)amido}propyl]hexadecanamide bis(trifluoroacetate)], for which, in series [1], the “Minimum Inhibitory Concentration K. pneumonie” value is >365 µM. The MIC in the series with S. aureus (MTCC 737) is recorded as 6.5 µM; in series [2], 3.3 µM; with E. coli (MTCC 443), 5.9 µM; in series [3] it was 4 µM. Moreover, the “Minimum Inhibitory Concentration MRSA” value in the series with MRSA (ATCC 33591) worked out at 10 µM. For the same compound, the HC50 in the series with human Red Blood Cells (Table 6) is 90 µM.
Consider `CCCCCCCCCCCC(=O)N(CCCNC(=O)[C@H](C)N)CCCNC(=O)[C@H](C)N.O=C(O)C(F)(F)F.O=C(O)C(F)(F)F` [Compound 45, N,N-bis-[{3-(^LAla)amido}propyl]dodecanamide bis(trifluoroacetate)], for which, in series [1], the “Minimum Inhibitory Concentration K. pneumonie” value was >365 µM. Moreover, the MIC against S. aureus (MTCC 737) was determined as 95 µM; in series [2], 82 µM; in the series with E. coli (MTCC 443), 282 µM; in series [3], 73 µM. In addition, the “Minimum Inhibitory Concentration MRSA” value with MRSA (ATCC 33591) turned out to be 133 µM. This compound came in with an HC50 with human Red Blood Cells (Table 6) of 562 µM.
With `CCCCCCCCCCCCCC(=O)N(CCCNC(=O)[C@H](C)N)CCCNC(=O)[C@H](C)N.O=C(O)C(F)(F)F.O=C(O)C(F)(F)F` [Compound 46, N,N-bis-[{3-(^LAla)amido}propyl]tetradecanamide bis(trifluoroacetate)], in series [1], the “Minimum Inhibitory Concentration K. pneumonie” value is >360 µM. Also, the MIC is 19 µM against S. aureus (MTCC 737), 7.6 µM in series [2], 17 µM with E. coli (MTCC 443) and 9 µM in series [3]. In addition, the “Minimum Inhibitory Concentration MRSA” value in the series with MRSA (ATCC 33591) came out at 17 µM. This compound came in with an HC50 in the series with human Red Blood Cells (Table 6) of 93 µM.
Consider `CCCCCCCCCCCCCCCC(=O)N(CCCNC(=O)[C@H](C)N)CCCNC(=O)[C@H](C)N.O=C(O)C(F)(F)F.O=C(O)C(F)(F)F` [Compound 47, N,N-bis-[{3-(^LAla)amido}propyl]hexadecanamide bis(trifluoroacetate)], for which the “Minimum Inhibitory Concentration K. pneumonie” value in series [1] worked out at 12 µM. Moreover, the MIC against S. aureus (MTCC 737) came out at 5.6 µM; in series [2] it was 3 µM; against E. coli (MTCC 443), 4 µM; in series [3], 3 µM. Also, in the series with MRSA (ATCC 33591), the “Minimum Inhibitory Concentration MRSA” value is 6 µM. In addition, the HC50 in the series on human Red Blood Cells (Table 6) was determined as 68 µM.
Regarding `CCCCCCCCCCCC(=O)N(CCCNC(=O)[C@@H](N)C(C)C)CCCNC(=O)[C@@H](N)C(C)C.O=C(O)C(F)(F)F.O=C(O)C(F)(F)F` [Compound 48, N,N-bis-[{3-(Val)amido}propyl]dodecanamide bis(trifluoroacetate)], in series [1], the “Minimum Inhibitory Concentration K. pneumonie” value is 58 µM. The MIC stood at 28 µM with S. aureus (MTCC 737), 25 µM in series [2], 18 µM in the series with E. coli (MTCC 443) and 25 µM in series [3]. Further, in the series on MRSA (ATCC 33591), the “Minimum Inhibitory Concentration MRSA” value was 40 µM. The same compound had an HC50 in the series on human Red Blood Cells (Table 6) of 264 µM.
Consider `CCCCCCCCCCCCCC(=O)N(CCCNC(=O)[C@@H](N)C(C)C)CCCNC(=O)[C@@H](N)C(C)C.O=C(O)C(F)(F)F.O=C(O)C(F)(F)F` [Compound 49, N,N-bis-[{3-(^LVal)amido}propyl]tetradecanamide bis(trifluoroacetate)], for which, in series [1], the “Minimum Inhibitory Concentration K. pneumonie” value is 7.3 µM. For the same compound, the MIC in the series with S. aureus (MTCC 737) is 4 µM; in series [2] it was 4 µM; against E. coli (MTCC 443) it was 7 µM; in series [3], 3.6 µM. In the series with MRSA (ATCC 33591), the “Minimum Inhibitory Concentration MRSA” value was found to be 3.4 µM. For the same compound, the HC50 with human Red Blood Cells (Table 6) amounted to 134 µM.
Take `CCCCCCCCCCCCCCCC(=O)N(CCCNC(=O)[C@@H](N)C(C)C)CCCNC(=O)[C@@H](N)C(C)C.O=C(O)C(F)(F)F.O=C(O)C(F)(F)F` [Compound 50, N,N-bis-[{3-(^LVal)amido}propyl]hexadecanamide bis(trifluoroacetate)]: the “Minimum Inhibitory Concentration K. pneumonie” value in series [1] was >314 µM. Besides, the MIC in the series on S. aureus (MTCC 737) amounted to 2.7 µM; in series [2], 1.4 µM; against E. coli (MTCC 443) it was 10 µM; in series [3], 1.7 µM. Further, the “Minimum Inhibitory Concentration MRSA” value with MRSA (ATCC 33591) was 1.9 µM. The compound further displayed an HC50 in the series on human Red Blood Cells (Table 6) of 86 µM.
